# Results published in patent US20240316036A1, “DISULFIDE CONTAINING THERAPEUTICS AND DIAGNOSTICS” (Singular Genomics Systems, Inc., priority 2023, published 2024).
# Experiment: Cleavage kinetics of cleavable linking moieties (CLM) with reducing agent THPP, compounds immobilized on a solid support
# Type: physicochemical
# Settings: 1 mM THPP, 55° C.
# Experimental: For the assay, a plurality of compounds containing the CLM was immobilized on a solid support. Next, a cleavage solution containing 10 mM THPP as a reducing agent was introduced for controlled periods of time. A second labeled compound was introduced to the solid support; compounds without a CLM will bind the labeled compounds. The cleavage reaction was carried out at 55° C., in a buffer solution at 9.5 pH. The degree of cleavage was measured as the percent of compounds that include a labeled compound as a function of time.
# A similar assay as described supra was performed, except that the concentration of the reducing agent was diluted to 1 mM of THPP and the cleavage reaction was carried out at 55° C.
substance,measurement,value
methylene disulfide [CLM #1],cleavage reaction,slow
